Test results published in patent publication US20140336182A1, “Aurora Kinase Modulators and Method of Use” (Amgen Inc., priority 2013, published 2014).

Test system: HeLa cells
Assay: HeLa cell 24 hr ploidy assay (DNA content)
Format: cell-based
Conditions: Homo sapiens, HeLa, HeLa cells, 4N ploidy, average, read-out: 24h_4NPloidy EC50_IP (uM Avg)
Procedure, shortened: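 DNA content measured by Hoechst 33342 nuclear staining (0.5 ug/ml, 45 min RT) and high-content imaging of fixed HeLa cells after 24 h compound exposure in 0.25% DMSO. Fractions of 4N and >4N cells fitted to dose curves giving EC50 IP, EC50 transit, Max and Min.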

With `Clc1ccc(-c2nnc(Nc3ccc(Sc4ccnc5[nH]ncc45)cc3)c3ccccc23)cc1` [compound 359] the EC50 was 0.013 µM.
`CNC(=O)c1cc(Sc2ccc(Nc3nnc(-c4ccc(Cl)cc4)c4ccccc34)cc2)ccn1` [compound 360] was tested, and the EC50 was 0.413 µM.
With `CNC(=O)c1cc(Oc2ccc(Nc3nnc(-c4ccc(Cl)cc4)c4ccccc34)cc2)ccn1` [compound 361] the EC50 was 0.22 µM.
`c1ccc(-c2nnc(Nc3ccc(Sc4ccnc5[nH]cnc45)cc3)c3ccccc23)cc1` [compound 362] showed an EC50 of 0.105 µM.
For `Clc1ccc(-c2nnc(Nc3ccc(Sc4ccnc5[nH]cnc45)cc3)c3ccccc23)cc1` [compound 363], the EC50 was 0.032 µM.
In the case of `COc1ccc2c(Sc3ccc(Nc4nnc(-c5ccc(Cl)cn5)c5ccccc45)cc3)ccnc2c1` [compound 364], the EC50 is reported as 0.005 µM.
In the case of `Clc1ccc(-c2nnc(Nc3ccc(Sc4ccnc5ccccc45)cc3)c3ccccc23)nc1` [compound 365], the EC50 is reported as 0.003 µM.
In the case of `Cc1csc(-c2nnc(Nc3ccc(Sc4ccnc5ccsc45)cc3)c3ccccc23)c1` [compound 366], the EC50 is reported as 0.002 µM.
For `COc1cnc2c(Oc3ccc(Nc4nnc(-c5ccccc5)c5c4CCC5)cc3)ccnc2c1` [compound 367], the EC50 was 0.039 µM.
With `COc1ccc2c(Oc3ccc(Nc4nnc(-c5ccccc5)c5c4CCC5)cc3)ccnc2c1` [compound 368] the EC50 was 0.021 µM.
In the case of `Clc1ccc(-c2nnc(Nc3ccc(Oc4cnnc5ccc(Br)cc45)cc3)c3ccccc23)cc1` [compound 369], the EC50 is reported as > 1.2 µM.
`c1ccc(-c2nnc(Nc3ccc(Oc4ccnc5ccnn45)cc3)c3ccccc23)cc1` [compound 370] gave an EC50 of 0.757 µM.
In the case of `COc1cnc2c(Oc3ccc(Nc4nnc(-c5ccc(Cl)cc5)c5c4CCC5)cc3)ccnc2c1` [compound 411], the EC50 is reported as > 1.2 µM.
In the case of `COc1ccc2c(Oc3ccc(Nc4nnc(-c5ccc(Cl)cc5)c5c4CCC5)cc3)ccnc2c1` [compound 412], the EC50 is reported as > 1.2 µM.
Molecule `COc1cnc2c(Sc3ccc(Nc4nnc(-c5ccccc5)c5ccccc45)cn3)ccnc2c1` [compound 413] has an EC50 of 0.041 µM.
With `Oc1cnc2c(Sc3ccc(Nc4nnc(-c5ccccc5)c5ccccc45)cc3)ccnc2c1` [compound 415] the EC50 was 0.015 µM.
In the case of `Cc1ccc(-c2nnc(Nc3ccc(Oc4ccnc5cccnc45)cc3)c3ccccc23)cc1N` [compound 416], the EC50 is reported as 0.008 µM.
For `c1ccc(-c2nnc(Nc3ccc(Oc4ccnc5cc(-c6cn[nH]c6)ccc45)cc3)c3ccccc23)cc1` [compound 417], the EC50 was 0.001 µM.
With `COc1cc2ncnc(Sc3ccc(Nc4nnc(-c5ccc(Cl)cc5)c5ccccc45)cc3)c2cc1OC` [compound 418] the EC50 was 0.004 µM.
For `COc1ccc2nccc(Sc3ccc(Nc4nnc(-c5cccc(C)n5)c5ccccc45)cc3)c2n1` [compound 419], the EC50 was 0.124 µM.
Work on `COc1cnc2c(Sc3ccc(Nc4nnc(-c5cccc(C)n5)c5ccccc45)cc3)ccnc2c1` [compound 420] yielded an EC50 of 0.029 µM.
`Cc1cccc(-c2nnc(Nc3ccc(Sc4ccnc5cccnc45)cc3)c3ccccc23)n1` [compound 421] was tested, and the EC50 was 0.051 µM.
`COc1cc2c(Oc3ccc(Nc4nnc(-c5ccccc5)c5ccccc45)cc3)ccnc2cc1O` [compound 422] gave an EC50 of 0.01 µM.
`Clc1ccc(-c2nnc(Nc3ccc(Oc4ccnc5ccncc45)cc3)c3ccccc23)cc1` [compound 423] was tested, and the EC50 was 0.031 µM.
Molecule `c1ccc2c(-c3ccc4c(c3)OCO4)nnc(Nc3ccc(Oc4ccnc5ccncc45)cc3)c2c1` [compound 424] has an EC50 of 0.024 µM.
`c1ccc(-c2nnc(Nc3ccc(Sc4ccnc5ccncc45)cc3)c3ccccc23)cc1` [compound 425] gave an EC50 of 0.024 µM.
`Clc1ccc(-c2nnc(Nc3ccc(Sc4ccnc5ccncc45)cc3)c3ccccc23)cc1` [compound 426] gave an EC50 of 0.008 µM.
For `c1ccc2c(-c3ccc4c(c3)OCO4)nnc(Nc3ccc(Sc4ccnc5ccncc45)cc3)c2c1` [compound 427], the EC50 was 0.002 µM.
`Cc1csc(-c2nnc(Nc3ccc(Sc4ccnc5ccncc45)cc3)c3ccccc23)c1` [compound 428] was tested, and the EC50 was 0.016 µM.
For `Cc1csc(-c2nnc(Nc3ccc(Oc4ccnc5ccncc45)cc3)c3ccccc23)c1` [compound 429], the EC50 was 0.034 µM.
Work on `Clc1ccc(-c2nnc(Nc3ccc(Sc4ccnc5ccncc45)cc3)c3ccccc23)nc1` [compound 430] yielded an EC50 of 0.007 µM.
For `COCCOc1ccc2c(Sc3ccc(Nc4nnc(-c5ccc(Cl)cc5)c5ccccc45)cc3)ccnc2c1` [compound 431], the EC50 was 0.01 µM.
`Cc1ccc(-c2nnc(Nc3ccc(Oc4ccnc5ccncc45)cc3)c3ccccc23)nc1` [compound 432] showed an EC50 of 0.109 µM.
Molecule `Cc1ccc(-c2nnc(Nc3ccc(Sc4ccnc5ccncc45)cc3)c3ccccc23)nc1` [compound 433] has an EC50 of 0.017 µM.
In the case of `COCCOc1ccc2nccc(Sc3ccc(Nc4nnc(-c5ccc(Cl)cc5)c5ccccc45)cc3)c2c1` [compound 434], the EC50 is reported as 0.027 µM.
For `COc1cc(OC)c2c(Oc3ccc(Nc4nnc(-c5ccc(Cl)cc5)c5ccccc45)cc3)ccnc2c1` [compound 435], the EC50 was 0.009 µM.
Molecule `COc1cc(OC)c2c(Sc3ccc(Nc4nnc(-c5ccc(Cl)cc5)c5ccccc45)cc3)ccnc2c1` [compound 436] has an EC50 of 0.049 µM.
Molecule `COc1cc(F)cc2nccc(Oc3ccc(Nc4nnc(-c5ccc(Cl)cc5)c5ccccc45)cc3)c12` [compound 437] has an EC50 of 0.005 µM.
`COc1cc(F)cc2nccc(Sc3ccc(Nc4nnc(-c5ccc(Cl)cc5)c5ccccc45)cc3)c12` [compound 438] showed an EC50 of 0.016 µM.
With `COc1cc(OC)c2c(Sc3ccc(Nc4nnc(-c5cc(C)cs5)c5ccccc45)cc3)ccnc2c1` [compound 439] the EC50 was 0.113 µM.
`COc1cc(F)cc2nccc(Sc3ccc(Nc4nnc(-c5cc(C)cs5)c5ccccc45)cc3)c12` [compound 440] gave an EC50 of 0.029 µM.
Work on `COc1cc(OC)c2c(Oc3ccc(Nc4nnc(-c5cc(C)cs5)c5ccccc45)cc3)ccnc2c1` [compound 441] yielded an EC50 of 0.008 µM.
For `COc1cc(F)cc2nccc(Oc3ccc(Nc4nnc(-c5cc(C)cs5)c5ccccc45)cc3)c12` [compound 442], the EC50 was < 0.0023 µM.
Molecule `c1cnc2c(Sc3ccc(Nc4nnc(-c5ccc6c(c5)OCO6)c5ccccc45)cc3)ccnc2c1` [compound 443] has an EC50 of 0.007 µM.
Molecule `FC1(F)Oc2ccc(-c3nnc(Nc4ccc(Sc5ccnc6cccnc56)cc4)c4ccccc34)cc2O1` [compound 444] has an EC50 of 0.024 µM.
With `c1cnc2c(Sc3ccc(Nc4nnc(-c5ccc6c(c5)CCO6)c5ccccc45)cc3)ccnc2c1` [compound 445] the EC50 was 0.001 µM.
Work on `Cc1csc(-c2nnc(Nc3ccc(Oc4ccnc5cccnc45)cc3)c3ccccc23)c1` [compound 447] yielded an EC50 of 0.012 µM.
For `Clc1ccc(-c2nnc(Nc3ccc(Oc4ccnc5cccnc45)cc3)c3ccccc23)cc1` [compound 448], the EC50 was 0.016 µM.
With `COc1cnc2c(Oc3ccc(Nc4nnc(-c5ccc(C)c(O)c5)c5ccccc45)cc3)ccnc2c1` [compound 449] the EC50 was < 0.0023 µM.
In the case of `COCCOc1cc(-c2nnc(Nc3ccc(Sc4ccnc5cc(OC)cnc45)cc3)c3ccccc23)ccc1Cl` [compound 450], the EC50 is reported as 0.008 µM.
For `COc1cnc2c(Sc3ccc(Nc4nnc(-c5ccc(C)c(O)c5)c5ccccc45)cc3)ccnc2c1` [compound 451], the EC50 was < 0.0023 µM.
With `Oc1cc(-c2nnc(Nc3ccc(Sc4ccnc5cccnc45)cc3)c3ccccc23)ccc1Cl` [compound 452] the EC50 was < 0.0023 µM.
For `COc1cnc2c(Sc3ccc(Nc4nnc(-c5ccc6cn[nH]c6c5)c5ccccc45)cc3)ccnc2c1` [compound 453], the EC50 was < 0.0023 µM.
Molecule `COc1cnc2c(Oc3c(F)cc(Nc4nnc(-c5ccc(Cl)cc5)c5ccccc45)cc3F)ccnc2c1` [compound 454] has an EC50 of 0.008 µM.
Work on `Fc1ccc2c(Oc3ccc(Nc4nnc(-c5ccc(Cl)cc5)c5ccccc45)cc3)ccnc2c1` [compound 455] yielded an EC50 of 0.008 µM.
`COc1cnnc(Nc2ccc(Oc3ccnc4cc(OC)cnc34)cc2)c1` [compound 456] was tested, and the EC50 was > 1.2 µM.
With `N#Cc1cc2nccc(Sc3ccc(Nc4nnc(-c5ccc6c(c5)OCO6)c5ccccc45)cc3)c2s1` [compound 457] the EC50 was 0.021 µM.
`N#Cc1cc2nccc(Sc3ccc(Nc4nnc(-c5ccccc5)c5ccccc45)cc3)c2s1` [compound 458] was tested, and the EC50 was 0.148 µM.
Molecule `Cc1csc(-c2nnc(Nc3ccc(Sc4ccnc5cc(C#N)sc45)cc3)c3ccccc23)c1` [compound 459] has an EC50 of 0.048 µM.
`N#Cc1cc2nccc(Sc3ccc(Nc4nnc(-c5ccc(Cl)cn5)c5ccccc45)cc3)c2s1` [compound 460] gave an EC50 of 0.041 µM.
`Cc1ccc(-c2nnc(Nc3ccc(Sc4ccnc5cc(C#N)sc45)cc3)c3ccccc23)cn1` [compound 461] gave an EC50 of 0.019 µM.
In the case of `c1ccc(-c2nnc(Nc3ccc(Sc4ccnc5cc[nH]c45)cc3)c3ccccc23)cc1` [compound 462], the EC50 is reported as 0.043 µM.
`Clc1ccc(-c2nnc(Nc3ccc(Sc4ccnc5cc[nH]c45)cc3)c3ccccc23)cc1` [compound 463] showed an EC50 of 0.01 µM.
`Cc1csc(-c2nnc(Nc3ccc(Sc4ccnc5cc[nH]c45)cc3)c3ccccc23)c1` [compound 464] gave an EC50 of 0.001 µM.
Work on `Clc1ccc(-c2nnc(Nc3ccc(Sc4ccnc5ccoc45)cc3)c3ccccc23)cc1` [compound 465] yielded an EC50 of 0.02 µM.
`c1ccc(-c2nnc(Nc3ccc(Sc4ccnc5ccoc45)cc3)c3ccccc23)cc1` [compound 466] showed an EC50 of 0.086 µM.
In the case of `c1ccc2c(-c3ccc4c(c3)OCO4)nnc(Nc3ccc(Sc4ccnc5ccoc45)cc3)c2c1` [compound 467], the EC50 is reported as 0.016 µM.
`Cc1csc(-c2nnc(Nc3ccc(Sc4ccnc5ccoc45)cc3)c3ccccc23)c1` [compound 468] gave an EC50 of 0.014 µM.
`COCCn1ccc2nccc(Sc3ccc(Nc4nnc(-c5ccc(Cl)cc5)c5ccccc45)cc3)c21` [compound 469] was tested, and the EC50 was 0.003 µM.
With `COCCn1ccc2nccc(Sc3ccc(Nc4nnc(-c5cc(C)cs5)c5ccccc45)cc3)c21` [compound 470] the EC50 was < 0.0023 µM.
Work on `CC(C)n1ccc2nccc(Sc3ccc(Nc4nnc(-c5ccc(Cl)cc5)c5ccccc45)cc3)c21` [compound 471] yielded an EC50 of 0.006 µM.
With `Cc1csc(-c2nnc(Nc3ccc(Sc4ccnc5ccn(C(C)C)c45)cc3)c3ccccc23)c1` [compound 472] the EC50 was 0.007 µM.
`COCCOc1ccc(-c2nnc(Nc3ccc(Sc4ccnc5cc(OC)cnc45)cc3)c3ccccc23)cc1OCCOC` [compound 473] showed an EC50 of 0.1 µM.
Work on `COCCOc1ccc(-c2nnc(Nc3ccc(Sc4ccnc5cc(OC)cnc45)cc3)c3ccccc23)cc1` [compound 474] yielded an EC50 of 0.024 µM.
